Data published in patent US20120189627A1, “Semi-Synthetic GLP-1 Peptide-FC Fusion Constructs, Methods and Uses” (priority 2007, published 2012).
Ends that are not written are not given here.

Key:
[1] = administered subcutaneously; cited from earlier work
[2] = type 2 diabetic patients, cited from earlier work
GLP-1 Receptor = target: T1, GLP-1 Receptor (Rattus norvegicus, UniProt P32301); experiment: LANCE cAMP assay in INS-1E cells; format: cell-based; conditions: FIG. 1
T1 construct: endogenous in cells; host or cells: INS-1E cells
T1 sequence (P32301 22-463): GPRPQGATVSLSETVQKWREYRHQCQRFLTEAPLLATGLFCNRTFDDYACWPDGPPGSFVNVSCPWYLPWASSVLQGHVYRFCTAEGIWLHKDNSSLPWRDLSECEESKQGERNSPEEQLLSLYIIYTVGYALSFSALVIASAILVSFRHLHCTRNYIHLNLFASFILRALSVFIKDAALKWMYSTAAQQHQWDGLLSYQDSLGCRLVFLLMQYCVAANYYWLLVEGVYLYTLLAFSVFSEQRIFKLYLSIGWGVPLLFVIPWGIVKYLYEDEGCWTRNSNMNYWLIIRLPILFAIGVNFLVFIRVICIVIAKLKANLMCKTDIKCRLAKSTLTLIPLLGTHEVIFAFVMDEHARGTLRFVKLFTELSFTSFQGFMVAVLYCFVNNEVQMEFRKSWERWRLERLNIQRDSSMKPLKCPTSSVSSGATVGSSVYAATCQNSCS
Procedure: The peptide-conjugates were tested for activity using the cAMP assay which measures cAMP produced upon modulation of adenylyl cyclase activity by GPCRs. • cAMP Assay The LANCE™ cAMP assay (Hemmila I. 1999. LANCE™: Homogeneous Assay Platform for HTS. J Biomol Screen. 4(6), 303-308) is a homogeneous time-resolved fluorescence resonance energy transfer (TR-FRET) immunoassay. The assay is based on the competition between a europium-labeled cAMP tracer and sample cAMP for binding sites on cAMP-specific antibodies labeled with the dye Alexa Fluor® 647. The europium-labeled tracer complex is formed by the tight interaction between Biotin-cAMP and streptavidin labeled with Europium-W8044 chelate. When antibodies are bound to the Eu-SA/b-cAMP tracer, light pulse 340 nm excites the Eu-chelate molecules of the tracer. […] The fluorescence intensity measure at 665 nm will decrease in the presence of cAMP from the test samples and resulting signals will be inversely proportional to the cAMP concentration of a sample (LANCE cAMP manual). • Cells and Assay. […]
For the assay, INS-1E cells were plated at confluence in 96-well plates (Costar 3610) and allowed to recover for 4 days in normal growth media. […] The plates were incubated at room temperature for 1 hour and then fluorescence intensity was measured at 665 nm. Cyclic AMP concentrations were determined against a standard curve.

For “GLP-1 (7-36) amide: GLP-1 (7-36) amide, GLP-1 peptide of the background section (HAEGTFTSDVSSYLEGQAAKEFIAWLVKGR-NH2; UniProt P01275 98-127, looked up)”, the time action [1] is given as “about 50 minutes”.
In the case of “GLP-1: Glucagon like peptide-1, peptide secreted from the L-cells of the intestine; given as six-week infusion (HAEGTFTSDVSSYLEGQAAKEFIAWLVKGRG-NH2; listed as Homo sapiens)”, the “fasting and 8-hour mean plasma glucose levels” value ([2]; six-week infusion) is given as “lowered” and the β-cell function [2] is given as “improvement”.
In the case of “His-[D-Ala]-Glu-Gly-Thr-Phe-Thr-Ser-Asp-Val-Ser-Ser-Tyr-Leu-Glu-Gly-Gln-Ala-Ala-Lys-Glu-Phe-Ile-Ala-Trp-Leu-Val-Lys-Gly-Arg-Gly-(N-3-aminopropyl)-PEG3-NH—CO—CH2—NH—NH2 [Peptide 1]”, the “bioactivity: ability to stimulate cAMP compared to wild-type GLP-1” value (GLP-1 Receptor) was “no loss in bioactivity”.
